Measured values taken from ChEMBL document CHEMBL3734731 (Medchemcomm, 2015).
Numbered stars: 1 amine (or outer) side, 2 acyl side, 3 side chain; on linkers, the order of the positions; unused ones are H or OH. Square brackets hold non-standard residues; d marks the D form. Peptide text beside a SMILES is read from it. * marks the point of attachment. NMeW = CN[C@@H](Cc1c[nH]c2ccccc12)C(=O)O; X2 = NS(=O)(=O)N[C@@H](CC(=O)O)C(=O)*; NMeY = CN[C@@H](Cc1ccc(O)cc1)C(=O)O; NMeF = CN[C@@H](Cc1ccccc1)C(=O)O; Suc = O=C(CCC(=O)[*:2])[*:1]; Oxamoyl = NC(=O)C(=O)*; CONHOH = O=C(NO)*

What was measured:
[1] = target: T1, Neuromedin-K receptor (Homo sapiens, UniProt P29371); test: Displacement of ([125I]His3-MePhe7)-NKB from NK3 receptor (unknown origin) expressed in CHO cells by scintillation counter; type: cell-based
T1 sequence (P29371 whole entry): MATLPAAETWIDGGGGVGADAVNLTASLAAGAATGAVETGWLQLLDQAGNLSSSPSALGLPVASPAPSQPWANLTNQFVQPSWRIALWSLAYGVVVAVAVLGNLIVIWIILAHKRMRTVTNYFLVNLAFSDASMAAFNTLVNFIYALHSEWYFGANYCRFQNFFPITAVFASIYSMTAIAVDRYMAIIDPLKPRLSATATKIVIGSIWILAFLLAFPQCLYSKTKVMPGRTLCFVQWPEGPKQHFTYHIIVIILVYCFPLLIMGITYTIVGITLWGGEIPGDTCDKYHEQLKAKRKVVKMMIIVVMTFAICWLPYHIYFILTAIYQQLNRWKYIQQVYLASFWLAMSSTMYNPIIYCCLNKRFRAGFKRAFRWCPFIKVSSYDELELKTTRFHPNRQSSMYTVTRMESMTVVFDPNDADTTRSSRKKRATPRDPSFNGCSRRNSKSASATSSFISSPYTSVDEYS

[2] = target: Substance-P receptor (Homo sapiens, UniProt P25103); test: Displacement of [125I]-BH-SP from NK1 receptor (unknown origin) expressed in CHO cells by scintillation counter; type: cell-based
Substance-P receptor, sequence (P25103 whole entry): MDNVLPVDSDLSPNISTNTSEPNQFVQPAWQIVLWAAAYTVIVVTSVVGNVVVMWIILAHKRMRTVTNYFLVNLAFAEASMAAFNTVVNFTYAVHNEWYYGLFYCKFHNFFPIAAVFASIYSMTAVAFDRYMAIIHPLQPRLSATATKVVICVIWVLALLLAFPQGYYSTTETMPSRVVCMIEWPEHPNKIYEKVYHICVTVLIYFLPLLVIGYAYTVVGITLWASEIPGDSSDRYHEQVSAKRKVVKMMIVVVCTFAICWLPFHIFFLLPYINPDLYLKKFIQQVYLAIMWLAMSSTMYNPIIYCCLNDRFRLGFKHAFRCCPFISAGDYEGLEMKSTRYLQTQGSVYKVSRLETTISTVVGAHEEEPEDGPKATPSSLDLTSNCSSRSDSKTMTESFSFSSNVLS

[3] = target: T2, Substance-K receptor (Homo sapiens, UniProt P21452); test: Displacement of [125I]-NKA from NK2 receptor (unknown origin) expressed in CHO cells by scintillation counter; type: cell-based
T2 sequence (P21452 whole entry): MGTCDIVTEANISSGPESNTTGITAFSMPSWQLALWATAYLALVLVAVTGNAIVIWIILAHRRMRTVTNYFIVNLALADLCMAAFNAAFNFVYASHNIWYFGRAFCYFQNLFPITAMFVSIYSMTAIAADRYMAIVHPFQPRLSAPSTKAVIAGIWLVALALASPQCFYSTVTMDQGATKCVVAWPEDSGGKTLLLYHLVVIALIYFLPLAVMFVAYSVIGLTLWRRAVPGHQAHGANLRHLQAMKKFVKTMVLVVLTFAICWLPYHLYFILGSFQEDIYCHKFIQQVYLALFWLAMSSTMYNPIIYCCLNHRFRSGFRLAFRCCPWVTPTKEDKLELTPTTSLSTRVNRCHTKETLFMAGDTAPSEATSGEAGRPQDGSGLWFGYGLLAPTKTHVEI

[4] = target: T1, Neuromedin-K receptor; test: Agonist activity at human NK3 receptor expressed in CHO cells assessed as calcium influx relative to 100 nM senktide; type: functional, cell-based
[5] = target: T3, Neuromedin-K receptor (Homo sapiens) (UniProt P29371); test: Potency index, ratio of EC50 for […] to EC50 for test compound for agonist activity at human NK3 receptor
T3 sequence (whole entry): T1 sequence (P29371 whole entry)

[6] = target: T3, Neuromedin-K receptor (Homo sapiens); test: Potency index, ratio of IC50 for […] to IC50 for test compound for binding affinity to NK3 receptor (unknown origin)

Row | SMILES | IC50 [1] | IC50 [2] | IC50 [3] | EC50 [4] | Ratio EC50 [5] | Ratio IC50 [6]
1 | CSCC[C@H](NC(=O)[C@H](CC(C)C)NC(=O)CNC(=O)[C@H](Cc1ccccc1)N(C)C(=O)[C@H](Cc1ccccc1)NC(=O)[C@@H](CC(=O)O)NC(=O)[C@@H](CC(=O)O)NC(C)=O)C(N)=O | 55 nM | > 10000 nM | > 10000 nM | 0.017 nM | – | –
2 | CSCC[C@H](NC(=O)[C@H](CC(C)C)NC(=O)CNC(=O)[C@H](Cc1ccccc1)N(C)C(=O)[C@H](Cc1ccccc1)NC(=O)[C@H](CC(=O)O)NC(=O)C(N)=O)C(N)=O (Oxamoyl-DF[NMeF]GLM-NH2) | 7.9 nM | > 10000 nM | > 10000 nM | 0.011 nM | – | –
3 | CSCC[C@H](NC(=O)[C@H](CC(C)C)NC(=O)CNC(=O)[C@H](Cc1ccccc1)N(C)C(=O)[C@H](Cc1ccccc1)NC(=O)[C@H](CCC(=O)O)NC(=O)CCC(=O)O)C(N)=O | 6.1 nM | > 10000 nM | > 10000 nM | 0.03 nM | 2 | –
4 | CSCC[C@H](NC(=O)[C@H](CC(C)C)NC(=O)CNC(=O)[C@H](Cc1ccccc1)N(C)C(=O)[C@H](Cc1ccccc1)NC(=O)[C@@H](CCC(=O)O)NC(=O)[C@@H](CC(=O)O)NC(C)=O)C(N)=O | 68 nM | > 10000 nM | > 10000 nM | 0.017 nM | – | –
5 | CSCC[C@H](NC(=O)[C@H](CC(C)C)NC(=O)CNC(=O)[C@H](Cc1ccccc1)N(C)C(=O)[C@H](Cc1ccccc1)NC(=O)[C@H](CC(=O)O)NC(=O)NN)C(N)=O | 34 nM | > 10000 nM | > 10000 nM | 0.006 nM | – | –
6 | CSCC[C@H](NC(=O)[C@H](CC(C)C)NC(=O)CNC(=O)[C@H](Cc1ccccc1)N(C)C(=O)[C@H](Cc1ccccc1)NC(=O)[C@H](CC(=O)O)NC(=O)NO)C(N)=O ({CONHOH}-DF[NMeF]GLM-NH2) | 10 nM | > 10000 nM | > 10000 nM | 0.043 nM | – | –
7 | CSCC[C@H](NC(=O)[C@H](CC(C)C)NC(=O)CNC(=O)[C@H](Cc1ccccc1)N(C)C(=O)[C@H](Cc1ccccc1)NC(=O)[C@H](CC(=O)O)NC(=O)[C@@H](CC(=O)O)NC(C)=O)C(N)=O | 73 nM | > 10000 nM | > 10000 nM | 0.018 nM | – | –
8 | CSCC[C@H](NC(=O)[C@H](CC(C)C)NC(=O)CNC(=O)[C@H](Cc1ccccc1)N(C)C(=O)[C@H](Cc1ccccc1)NC(=O)[C@H](CC(=O)O)NC(=O)[C@H](CC(=O)O)NC(C)=O)C(N)=O | 68 nM | > 10000 nM | > 10000 nM | 0.031 nM | – | –
9 | CSCC[C@H](NC(=O)[C@H](CC(C)C)NC(=O)CNC(=O)[C@H](Cc1ccccc1)N(C)C(=O)[C@H](Cc1ccccc1)NC(=O)[C@H](CC(=O)O)NS(N)(=O)=O)C(N)=O (X2-F[NMeF]GLM-NH2) | 5.6 nM | > 10000 nM | > 10000 nM | 0.0025 nM | – | –
10 | CSCC[C@H](NC(=O)[C@H](CC(C)C)NC(=O)CNC(=O)[C@H](Cc1ccc(O)cc1)N(C)C(=O)[C@H](Cc1ccccc1)NC(=O)[C@H](CC(=O)O)NC(=O)CCC(=O)O)C(N)=O (Suc-DF[NMeY]GLM-NH2) | 28 nM | > 10000 nM | > 10000 nM | 0.041 nM | – | –
11 | CSCC[C@H](NC(=O)[C@H](CC(C)C)NC(=O)CNC(=O)[C@H](Cc1ccccc1)N(C)C(=O)[C@H](Cc1ccccc1)NC(=O)[C@H](CCC(=O)O)NC(=O)[C@@H](CC(=O)O)NC(C)=O)C(N)=O | 13 nM | > 10000 nM | > 10000 nM | 0.012 nM | 2 | 3
12 | CSCC[C@H](NC(=O)[C@H](CC(C)C)NC(=O)CNC(=O)[C@H](Cc1ccccc1)N(C)C(=O)[C@H](Cc1ccccc1)NC(=O)[C@@H](CC(=O)O)NC(=O)CCC(=O)O)C(N)=O | – | – | > 10000 nM | – | – | –
13 | CSCC[C@H](NC(=O)[C@H](CC(C)C)NC(=O)CNC(=O)[C@H](Cc1c[nH]c2ccccc12)N(C)C(=O)[C@H](Cc1ccccc1)NC(=O)[C@H](CC(=O)O)NC(=O)CCC(=O)O)C(N)=O (Suc-DF[NMeW]GLM-NH2) | 123 nM | > 10000 nM | > 10000 nM | 0.033 nM | – | –
14 | CSCC[C@H](NC(=O)[C@H](CC(C)C)NC(=O)CNC(=O)[C@H](Cc1ccccc1)N(C)C(=O)[C@H](Cc1ccccc1)NC(=O)[C@@H](CCC(=O)O)NC(=O)[C@H](CC(=O)O)NC(C)=O)C(N)=O | 37 nM | > 10000 nM | > 10000 nM | 0.018 nM | – | –
